Measured values taken from US12226433B2, “Treatment of irritable bowel syndrome with molybdenum” (The Johns Hopkins University, priority 2018, dated 2025).

Tests used:
IBS mouse model = assay: Visceral motor reflex (VMR) response to colorectal distention (CRD), pain sensitivity in IBS mouse model; assay type: in vivo; details: 0.2 ml sodium molybdate (10 mg/ml) cecal infusion for 7 days; for pain sensitivity (hyperalgesia) assessed by VMR response to CRD: IBS mice, CRD 15, 30, 50 and 70 mmHg, vs IBS-vehicle, P<0.05
Protocol: (§1) IBS mice were generated by colorectal infusion of 0.5% acetic acid (20 μl) at postnatal day 10. The mice were then allowed to grow up until adult. The adult IBS and control mice were undergone a surgery to insert a catheter into the cecum. The catheter made from PE10 tubing with 8 cm long. It was insert into cecum about 0.5 cm and then tunneled to the back of the mouse after sutured on the cecum wall ensuring no cecum content leaking. Then, a pair of electrodes were inserted into the external oblique (abdominal) muscle for pain sensitivity test. The mice received 0.2 ml sodium molybdate (10 mg/ml) through cecal infusion starting on the day after surgery for 7 days. One day after the last infusion, a visceral motor reflex (VMR) response to colorectal distention (CRD) was conducted to assess the pain sensitivity. A balloon was inserted into colorectum through the anus for CRD. The VMR is measured using an electromyographic (EMG) recording that response to CRD with 15, 30, 50 and 70 mmHg. To assess the microbiota, stool were collected before and after the molybdate treatment. Microbiome were examined by 16S rRNA sequencing.

Desulfovibrio = assay: Stool microbiome examined by 16S rRNA sequencing before and after molybdate treatment; assay type: in vivo, mouse; details: molybdate treated control and IBS groups; stool before and after 7 days of cecal infusion; not reduced in saline treated groups
Protocol: as §1

## [Na+].[Na+].[O]=[Mo](=[O])([O-])[O-] [sodium molybdate]
IBS mouse model
  pain sensitivity (hyperalgesia) assessed by VMR response to CRD: reduced hyperalgesia
IBS mouse model; listed as molybdate
  pain sensitivity (hyperalgesia) assessed by VMR response to CRD: significantly reduced
IBS mouse model; control mice, molybdate vs saline treated
  pain sensitivity assessed by VMR response to CRD: no significant different
Desulfovibrio
  sulfate-reducing bacteria Desulfovibrio in stool (16S rRNA sequencing): reduced
